Where only a bound is given, the exact number is not on record here.

This assay addresses Lysine-specific histone demethylase 1A (Homo sapiens, UniProt O60341). In words: Biochemical Assay: LANCE LSD1/KDM1A demethylase assay-10 μL of 1 nM LSD-1 enzyme (ENZO BML-SE544-0050) in the assay buffer (50 mM Tris, pH 7.5, 0.01% Tween-20, 25 mM NaCl, 5 mM DTT) were preincubated for 1 hour at 25° C. with 0.8 μL compound/DMSO dotted in black 384 well polystyrene plates. Reactions were started by addition of 10 μL of assay buffer containing 0.4 μM Biotin-labeled Histone H3 peptide substrate: ART-K(Mel)-QTARKSTGGKAPRKQLA-GGK(Biotin) SEQ ID NO: 1 (AnaSpec 64355) and incubated for 1 hour at 25° C. Reactions were stopped by addition of 10 μL 1×LANCE Detection Buffer (PerkinElmer CR97-100) supplemented with 1.5 nM Eu-anti-unmodified H3K4 Antibody (PerkinElmer TRF0404), and 225 nM LANCE Ultra Streptavidin (PerkinElmer TRF102) along with 0.9 mM Tranylcypromine-HCl (Millipore 616431). After stopping the reactions plates were incubated for 30 minutes and read on a PHERAstar FS plate reader (BMG Labtech). On the technique in general: Time-resolved FRET reads energy transfer from a long-lived donor to a nearby acceptor.
On to `COC(=O)N(C)c1ccc(-c2c(-c3ccc(C#N)cc3)nc(N3CCC(N(C)C)CC3)n3ccnc23)cc1F`, for which the IC50 (as a rule, the concentration needed to halve the response being measured) was under 50 nM.
The value for `COC(=O)N(C)c1cc(-c2c(-c3ccc(C#N)cc3)nc(OC[C@@H]3CCCN(C)C3)n3ccnc23)ccc1C` was under 50 nM.
In the case of `COC(=O)N(C)c1ccc(-c2c(-c3ccc(C#N)cc3)nc(N3CCC(N(C)C)CC3)n3ccnc23)cc1` it was under 50 nM.

These data come from ChEMBL document CHEMBL5726965, “Heterocyclic compounds as LSD1 inhibitors” (2018).
